Experimental data: article PMC6754346, “Compounds with capacity to quench the tyrosyl radical in Pseudomonas aeruginosa ribonucleotide reductase” (Journal of Biological Inorganic Chemistry, 2019)

Key:
[1] = biological target: P. aeruginosa RNR active holoenzyme (NrdA/B complex) (Pseudomonas aeruginosa, UniProt Q9I4I1+Q9I4I2); assay: EPR, tyrosyl radical quenching in holoenzyme; type: biochemical; settings: 133 µM compound, 12 µM each NrdA and NrdB, 5 mM ATP, 10 mM magnesium acetate, 30 mM DTT, 50 mM Tris pH 7.5; corrected for control decay
Sequence of P. aeruginosa RNR active holoenzyme (NrdA/B complex) (Q9I4I1 1-963): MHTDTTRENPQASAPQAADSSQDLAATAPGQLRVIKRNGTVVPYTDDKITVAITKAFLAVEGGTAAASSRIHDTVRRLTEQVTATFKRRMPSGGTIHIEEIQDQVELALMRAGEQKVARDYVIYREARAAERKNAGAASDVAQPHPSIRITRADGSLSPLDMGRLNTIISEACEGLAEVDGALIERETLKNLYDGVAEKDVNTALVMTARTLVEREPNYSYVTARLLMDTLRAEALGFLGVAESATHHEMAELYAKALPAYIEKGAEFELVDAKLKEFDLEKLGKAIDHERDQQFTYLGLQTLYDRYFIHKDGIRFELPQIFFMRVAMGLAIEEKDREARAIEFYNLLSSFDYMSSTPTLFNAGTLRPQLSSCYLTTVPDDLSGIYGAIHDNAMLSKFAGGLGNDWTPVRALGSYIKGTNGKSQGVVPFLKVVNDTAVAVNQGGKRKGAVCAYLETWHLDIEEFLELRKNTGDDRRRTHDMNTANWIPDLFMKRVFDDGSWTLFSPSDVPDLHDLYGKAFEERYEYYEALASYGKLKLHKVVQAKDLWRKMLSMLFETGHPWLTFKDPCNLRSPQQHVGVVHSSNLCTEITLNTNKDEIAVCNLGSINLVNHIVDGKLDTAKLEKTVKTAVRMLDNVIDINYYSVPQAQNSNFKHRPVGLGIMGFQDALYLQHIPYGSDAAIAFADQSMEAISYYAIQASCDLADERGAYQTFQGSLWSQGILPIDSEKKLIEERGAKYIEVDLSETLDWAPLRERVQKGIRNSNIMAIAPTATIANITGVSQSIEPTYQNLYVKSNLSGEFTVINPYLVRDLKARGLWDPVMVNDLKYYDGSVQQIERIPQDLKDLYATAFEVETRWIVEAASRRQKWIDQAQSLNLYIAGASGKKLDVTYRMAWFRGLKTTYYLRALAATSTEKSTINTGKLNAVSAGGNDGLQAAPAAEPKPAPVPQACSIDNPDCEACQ
Sequence of P. aeruginosa RNR active holoenzyme (NrdA/B complex) (Q9I4I2 1-415): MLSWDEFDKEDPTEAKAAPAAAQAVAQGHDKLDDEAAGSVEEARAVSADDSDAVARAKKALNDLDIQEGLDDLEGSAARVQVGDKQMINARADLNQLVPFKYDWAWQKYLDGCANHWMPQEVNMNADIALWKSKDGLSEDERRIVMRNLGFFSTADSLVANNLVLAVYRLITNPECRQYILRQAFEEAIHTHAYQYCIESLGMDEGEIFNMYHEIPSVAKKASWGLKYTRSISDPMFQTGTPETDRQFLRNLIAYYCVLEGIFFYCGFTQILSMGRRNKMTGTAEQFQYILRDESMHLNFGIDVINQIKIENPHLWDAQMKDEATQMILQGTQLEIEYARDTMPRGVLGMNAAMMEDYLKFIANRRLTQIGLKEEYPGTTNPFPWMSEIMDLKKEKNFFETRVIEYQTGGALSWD
From the text: EPR, tyrosyl radical quenching in holoenzyme on P. aeruginosa RNR active holoenzyme (NrdA/B complex)

NrdB = biological target: T1, NrdB (Pseudomonas aeruginosa, UniProt Q9I4I2); assay: EPR, tyrosyl radical quenching; type: biochemical; settings: 133 µM compound, 15 µM Fe-reconstituted NrdB, 50 mM Tris pH 7.5, 1% DMSO, no DTT; corrected for control decay
T1 construct: homodimer concentrations; apoNrdB reconstituted with Fe2+ for EPR
T1 sequence (Q9I4I2 1-415): as above
From the text: EPR, tyrosyl radical quenching on NrdB

Structure (SMILES) | Tyrosyl radical decay rate [1] | Tyrosyl radical decay rate and radical left after 10 min / NrdB only^a (NrdB)
COc1ccc(C2=NC(=O)NC2c2ccc(OC)cc2)cc1 (stereo not drawn) [compound 26692, NSC26692] | 0.18 ± 0.19 min⁻¹ | –
COc1cc(-c2ccc(Nc3ccccc3C(=O)O)c(OC)c2)ccc1Nc1ccccc1C(=O)O [compound 73735, NSC73735] | 0.67 ± 0.01 min⁻¹ | –
CCc1oc2ccccc2c1C(=O)c1cc(Br)c(O)c(Br)c1 [compound 85433, NSC85433] | 0.33 ± 0.03 min⁻¹ | –
CC(=O)c1cc(O)c2ccccc2c1O [compound 111552, NSC111552] | 0.43 ± 0.32 min⁻¹ | 0.19 ± 0.03 min⁻¹
N#Cc1c(C#N)c(O)c2ccccc2c1O [compound 128281, NSC128281] | 0.43 ± 0.03 min⁻¹ | 0.30 ± 0.07 min⁻¹
CCOC(=O)/C=C(/C)Sc1cc(O)c2ccccc2c1O [compound 278631, NSC278631] | – | 0.40 ± 0.06 min⁻¹
O=C(Nc1ccc(Cl)c(Cl)c1)Nc1ccccc1O [compound 522131, NSC522131] | – | 0.35 ± 0.04 min⁻¹
